“And” between values parts separate entries of the source, which are not always exact repeats. Identical values can stand only once.
Assay: Experimental table stability of AST-2660 in human plasma at room temperature (LC-MS/MS)
Assay type: in vitro ADME
Details: for AST-2660 concentration, Mean value / AST-2660 concentration, single replicates / RE (%) vs nominal: human plasma, room temperature
Experimental: The detection method established in example 4 was used to detect the content of AST-2660 in the human plasma to be tested.
Matrix: the mixed normal human plasma containing anticoagulant (K2 EDTA) • a: the internal standard working solution: AST-2660-D8 was taken, added with methanol, and diluted to prepare a solution containing about 100 ng per 1 ml. • b: the solution to be tested (no internal standard compound was added to the solution to be tested at this time): it was obtained by taking a blood sample to be tested. • c: the standard working solution (no internal standard compound was added to the standard working solution at this time): an appropriate amount of AST-2660 was taken and accurately weighed, dissolved with methanol, and diluted to prepare a solution containing about 1.0 mg per 1 ml, which was used as the standard working stock solution. An appropriate amount of the standard working stock solution was taken, added with the matrix and diluted to prepare standard working solutions with different concentrations containing about 200 ng, 160 ng, 100 ng, 50 ng, 10 ng, 2.0 ng, 1.0 ng and 0.5 ng per 1 ml, respectively. (The solution was stored at −70° C.) • d: the quality control sample solution: an appropriate amount of AST-2660 was taken and accurately weighed, dissolved with methanol, and diluted to prepare a solution containing about 10 μg per 1 ml, which was used as the quality control working stock solution. An appropriate amount of the quality control working stock solution was taken, added with matrix to prepare quality control working solutions with different concentrations containing about 150 ng, 60 ng, 15 ng, 1.5 ng and 0.5 ng per 1 ml. (The solution was stored at −70° C.)
The solution to be tested, the standard working solution and the quality control sample solution were thawed at room temperature and mixed uniformly. 100 μl of the above solution was respectively taken, added with 20 μl of the internal standard and 500 μl of methanol, and vortexed for 3 minutes to mix uniformly, and then centrifuged for 10 minutes at 2143 rcf. 450 μl of the supernatant was taken and dried, and 150 μl of methanol was added for redissolution, and sonicated. Then the plates were centrifuged for 3 minutes at 4° C. It was obtained by taking […] of supernatant.
Liquid phase conditions: A SHARC 1, 3 μm, 2.1*50 mm or chromatograph column with equivalent performance was used; the mobile phase was a methanol solution comprising low content of ammonium acetate; the mobile phase B was acetonitrile; the gradient elution was performed according to the following table, column temperature: 20° C.; injection volume: 5 μl.
Mass spectrometric conditions: electrospray ion source with negative ion scanning mode; spray potential: −4500 V; ion source temperature: 500° C.; collision energy (CE): −22 eV; declustering potential (DP): −55V; entrance potential (EP): −10V; collision chamber exit potential (CXP): −16V; dwell time: 100 ms; high purity nitrogen was used for all gases; AST-2660 ions pairs: m/z 147.0→m/z 62.9; the internal standard AST-2660-D8 ion pairs: m/z 155.0→m/z 62.9.
The AST-2660 standard working solution, blank sample, zero concentration sample, sample solution to be tested and quality control sample solution with different concentrations after extraction were respectively taken and injected into LC-MS/MS for detection.
Calculation results: the relationship function y=f (x) of the ratio of the peak area of the AST-2660 to that of the internal standard was obtained from AST-2660 standard working solutions with different concentrations. The ratio of the peak area of the AST-2660 to that of the internal standard was determined from the solution to be tested after extraction, and substituted into the relationship function y=f (x) to calculate the concentration of the metabolite II in the solution to be tested.

[1] = DilQC (10-fold dilution) nominal 1500 ng/ml, 0 hour
[2] = DilQC (10-fold dilution) nominal 1500 ng/ml, 4 hours
[3] = DilQC (10-fold dilution) nominal 1500 ng/ml, 24 hours
[4] = QC1 nominal 1.50 ng/ml, 4 hours
[5] = QC1 nominal 1.50 ng/ml, 24 hours
[6] = QC4 nominal 150 ng/ml, 24 hours

O=P([O-])(N1CC1)N1CC1.[Na+] [AST-2660]
stability (in words) (human plasma samples at room temperature): not stable | AST-2660 concentration, Mean value [1]: 1680 ng/mL | AST-2660 concentration, single replicates [1]: 1610 ng/mL and 1770 ng/mL and 1700 ng/mL and 1640 ng/mL | RE (%) vs nominal [1]: 12.0% | AST-2660 concentration, Mean value [2]: 1593 ng/mL | AST-2660 concentration, single replicates [2]: 1500 ng/mL and 1710 ng/mL and 1600 ng/mL and 1560 ng/mL | RE (%) vs nominal [2]: 6.2% | AST-2660 concentration, Mean value [3]: 1455 ng/mL | AST-2660 concentration, single replicates [3]: 1380 ng/mL and 1500 ng/mL and 1480 ng/mL and 1460 ng/mL | RE (%) vs nominal [3]: −3.0% | AST-2660 concentration, Mean value (QC1 nominal 1.50 ng/ml, 0 hour): 1.42 ng/mL | AST-2660 concentration, single replicates (QC1 nominal 1.50 ng/ml, 0 hour): 1.44 ng/mL and 1.32 ng/mL and 1.38 ng/mL and 1.55 ng/mL | RE (%) vs nominal (QC1 nominal 1.50 ng/ml, 0 hour): −5.2% | AST-2660 concentration, Mean value [4]: 1.35 ng/mL | AST-2660 concentration, single replicates [4]: 1.34 ng/ml (2×) and 1.31 ng/ml and 1.42 ng/ml | RE (%) vs nominal [4]: −9.8% | AST-2660 concentration, Mean value [5]: 1.32 ng/mL | AST-2660 concentration, single replicates [5]: 1.33 ng/mL and 1.28 ng/mL and 1.38 ng/mL and 1.27 ng/mL | RE (%) vs nominal [5]: −12.3% | AST-2660 concentration, Mean value (QC4 nominal 150 ng/ml, 0 hour): 136 ng/mL | AST-2660 concentration, single replicates (QC4 nominal 150 ng/ml, 0 hour): 130 ng/mL and 142 ng/mL and 135 ng/mL and 137 ng/mL | RE (%) vs nominal (QC4 nominal 150 ng/ml, 0 hour): −9.3% | AST-2660 concentration, Mean value (QC4 nominal 150 ng/ml, 4 hours): 138 ng/mL | AST-2660 concentration, single replicates (QC4 nominal 150 ng/ml, 4 hours): 130 ng/mL and 141 ng/mL and 136 ng/mL and 145 ng/mL | RE (%) vs nominal (QC4 nominal 150 ng/ml, 4 hours): −8.0% | AST-2660 concentration, Mean value [6]: 125 ng/mL | AST-2660 concentration, single replicates [6]: 117 ng/mL and 128 ng/mL and 124 ng/mL and 129 ng/mL | RE (%) vs nominal [6]: −17.0%

From patent publication US20240140970A1, “A […], AND PREPARATION METHOD AND USE THEREOF” (ASCENTAWITS PHARMACEUTICALS, LTD., priority 2021, published 2024)
